Three compounds from paper PMC9122598, “NASP maintains histone H3–H4 homeostasis through two distinct H3 binding modes” (Nucleic Acids Research, 2022) can be followed below.

“Also recorded” adds a separate entry of the source.

Common to all, as to assay type: cell-based, human
Assay [1] relates to HCT116 wt and NASP-dTAG cells. As to the kind of experiment: Cell cycle distribution (high-content microscopy, EdU). The settings on record: 5 μM dTAG-13, 48 h; mean n=3; ns = P>0.05. As for the experimental part: HCTT116 wt and NASP-dTAG cells were seeded at a density of 3000 cells per well in 96 well plates (6055300, Cell carrier) and treated with either dTAG-13 (5 μM, 48 hours) or DMSO (0.2%, 48 hours). Before fixation, newly replicated DNA was labelled with EdU (20 mins, 10 μM) at 37°C. Cells were washed in ice-cold PBS, fixed (4% paraformaldehyde, 15 mins, 4°C) and washes twice in ice cold PBS. EdU staining followed the Click-iT plus Alexa647-picolyl azide protocol (Thermo Scientific) and DNA was stained with DAPI (4′,6-diamidino-2-phenylindole). Images were acquired on an Olympus ScanR high-content microscope and analysed with ScanR analysis software. Cell cycle gates were defined using mean EdU and total DAPI intensities.

Assay [2] relates to soluble histone H3–H4 pool. As to the kind of experiment: Soluble histone pool in HCT116 NASP-dTAG cells (western blot of soluble extracts). The settings on record: 5 μM dTAG-13 48 h, complementation with DOX-induced sNASP. As for the experimental part: Unless stated otherwise cells were grown in DMEM with Glutamax (35050061, Gibco), 10% FBS (12389802, Hyclone) and 1% penicillin/streptomycin (15140122, Gibco) at 37°C with 5% CO2. HeLa S3 and HCT116 pLVX-TetOne-Puro cell lines were grown under Puromycin selection (1 μg/ml, P8833, Sigma). In Hela S3 and HCT116 pLVX-TetOne-Puro, the expression of sNASP-TwinStrep-HA, referred as sNASP-Strep-HA above, wt and mutants was induced by treatment with 2 μg/ml Doxycycline (631311, Clontech) for 24–48 hours. HCT116 NASP-FKBP12^F36V (NASP-dTAG) were treated with 0.2% DMSO (67–68-5, Sigma) or 5 μM dTAG-13 (6605, Tocris) for the indicated times, to induce the degradation of endogenous NASP. […] 24 hours after seeding, cells were treated with either 0.2% DMSO or 5 μM dTAG-13 for 48 hours, and cell viability was quantified with CellTiter-Blue® Cell Viability Assay (G8080, Promega), according to the manufacturer's instructions. […]
Protein concentrations were measured using Pierce™ 660 nm Protein Assay Reagent (Thermo Scientific) or the Bradford protein assay (Bio-Rad). […] Western blots from three independent biological replicates were quantified using the software ImageJ, version 1.0.
Background: Immunoblotting shows a protein as a band on a membrane.

Assay [3] relates to endogenous s- and t-NASP (NASP-FKBP12^F36V). As to the kind of experiment: Depletion of endogenous NASP in NASP-dTAG cells (western blot, immunofluorescence). To be noted: HCT116 NASP-dTAG, 5 μM dTAG-13, 48 h. Here is the method: Unless stated otherwise cells were grown in DMEM with Glutamax (35050061, Gibco), 10% FBS (12389802, Hyclone) and 1% penicillin/streptomycin (15140122, Gibco) at 37°C with 5% CO2. HeLa S3 and HCT116 pLVX-TetOne-Puro cell lines were grown under Puromycin selection (1 μg/ml, P8833, Sigma). In Hela S3 and HCT116 pLVX-TetOne-Puro, the expression of sNASP-TwinStrep-HA, referred as sNASP-Strep-HA above, wt and mutants was induced by treatment with 2 μg/ml Doxycycline (631311, Clontech) for 24–48 hours. HCT116 NASP-FKBP12^F36V (NASP-dTAG) were treated with 0.2% DMSO (67–68-5, Sigma) or 5 μM dTAG-13 (6605, Tocris) for the indicated times, to induce the degradation of endogenous NASP. […] 24 hours after seeding, cells were treated with either 0.2% DMSO or 5 μM dTAG-13 for 48 hours, and cell viability was quantified with CellTiter-Blue® Cell Viability Assay (G8080, Promega), according to the manufacturer's instructions.
Protein concentrations were measured using Pierce™ 660 nm Protein Assay Reagent (Thermo Scientific) or the Bradford protein assay (Bio-Rad). […] Western blots from three independent biological replicates were quantified using the software ImageJ, version 1.0. […]

For assay [4], the system named is HCT116 wt and NASP-dTAG cells. In words: Cell viability (CellTiter-Blue). To be noted: 5 μM dTAG-13, 48 h; mean n=3; ns = P>0.05. Here is the method:
Unless stated otherwise cells were grown in DMEM with Glutamax (35050061, Gibco), 10% FBS (12389802, Hyclone) and 1% penicillin/streptomycin (15140122, Gibco) at 37°C with 5% CO2. HeLa S3 and HCT116 pLVX-TetOne-Puro cell lines were grown under Puromycin selection (1 μg/ml, P8833, Sigma). In Hela S3 and HCT116 pLVX-TetOne-Puro, the expression of sNASP-TwinStrep-HA, referred as sNASP-Strep-HA above, wt and mutants was induced by treatment with 2 μg/ml Doxycycline (631311, Clontech) for 24–48 hours. HCT116 NASP-FKBP12^F36V (NASP-dTAG) were treated with 0.2% DMSO (67–68-5, Sigma) or 5 μM dTAG-13 (6605, Tocris) for the indicated times, to induce the degradation of endogenous NASP. In the complementation experiments, HCT116 cells were simultaneously treated with 2 μg/ml Doxycycline and either 0.2% DMSO or 5 μM dTAG-13 for 48 hours, to ensure a synchronized degradation of the endogenous protein and expression of sNASP-Strep-HA wt or mutants. For cell viability experiments, HCT116 cells were seeded at low confluency in a 24 well plate. 24 hours after seeding, cells were treated with either 0.2% DMSO or 5 μM dTAG-13 for 48 hours, and cell viability was quantified with CellTiter-Blue® Cell Viability Assay (G8080, Promega), according to the manufacturer's instructions.
On the technique in general: The colour change of resazurin is a common sign of viable cells or microbes.

The subject of assay [5] is endogenous s- and t-NASP, histone H3. As to the kind of experiment: Co-immunoprecipitation of sNASP-FLAG-Myc from HeLa S3. To be noted: HeLa S3, transient transfection.
Description: Protein concentrations were measured using Pierce™ 660 nm Protein Assay Reagent (Thermo Scientific) or the Bradford protein assay (Bio-Rad). For immunoprecipitation, 2–3 mg of sNASP-FLAG-myc and sNASP-Strep-HA extracts were incubated for 3 hours at 4°C degrees with 50 μl of anti-Flag M2 (A2220, Sigma) or Anti-TwinStrep Mag-Strep beads (2–4090-002, Iba). After incubation, the beads were washed five times in ice-cold wash buffer (150 mM NaCl, 0.02% Nonidet P40, 50 mM Tris-HCl pH 7.6, 0.1 mM EDTA, 5% glycerol). Bound proteins were eluted with either Laemmli sample buffer 1X (LSB 4X: Tris-HCl (200 mM, pH 6.8), SDS 4%, glycerol (40%), DTT (100 mM)) or biotin elution buffer 1X (BXT buffer, 2–1042-025, Iba), respectively. Western blotting was performed as described previously ([11]). Western blots from three independent biological replicates were quantified using the software ImageJ, version 1.0.

Turning to `CC[C@H](C(=O)N1CCCC[C@H]1C(=O)O[C@H](CCc1ccc(OC)c(OC)c1)c1ccccc1OCC(=O)NCCCCCCOc1cccc2c1C(=O)N(C1CCC(=O)NC1=O)C2=O)c1cc(OC)c(OC)c(OC)c1` (some centres unmarked) [dTAG-13], the Cell cycle distribution entry in assay [1] was “non-significant; also recorded: without dramatic effects on cell cycle progression and cell proliferation”. In addition, in assay [2], the “Level of soluble histones (H3, H4, H4K5ac)” value is listed as “reduced the pool of soluble histone H3–H4”. Also, the “Depletion of endogenous NASP” value in assay [3] is “efficient and stable depletion of endogenous s- and t-NASP isoforms”. Besides, in assay [4], the “Cell viability relative to DMSO” value is “non-significant; also recorded: without dramatic effects on cell cycle progression and cell proliferation”.
For “sNASP 6E mutant: sNASP-FLAG-Myc V265E I272E L282E V286E I300E L307E”, in assay [5], the “Pull down of endogenous s- and t-NASP” value is on record as “impaired”; the “Pull down of histone H3” value is “efficiently pulled down histone H3”.
Consider “sNASP wild type (wt): epitope-tagged sNASP wild type (FLAG-Myc or Strep-HA)”, for which, in assay [5], the “Pull down of endogenous s- and t-NASP” value is “pulled down both endogenous s- and t- NASP”. Besides, in assay [2], the “Level of soluble histones (H3, H4, H4K5ac)” value was “rescued the soluble histone pool”.
